In the supplement of paper PMC10307832:

Legend:
Test in all cases: relative viability (nuclei count vs DMSO), 5 days (fraction); higher = more cells survive
Vemurafenib + Foretinib = compound: CCCS(=O)(=O)Nc1ccc(F)c(C(=O)c2c[nH]c3ncc(-c4ccc(Cl)cc4)cc23)c1F [Vemurafenib] + COc1cc2c(Oc3ccc(NC(=O)C4(C(=O)Nc5ccc(F)cc5)CC4)cc3F)ccnc2cc1OCCCN1CCOCC1 [Foretinib] (partner 0.25 µM)
In short: (§1)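 Lung cancer cell lines, seeded in 1536-well plates, were treated the following day by pin tool with a single drug or with five library-drug doses (not always all listed) in √10 steps on top of a fixed anchor-drug dose. Cells were fixed and nuclei stained in one step after 5 days, and nuclei were counted. Relative viability is the nuclei count for treated wells divided by that for vehicle wells, reported as medians of duplicate plates.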

Vemurafenib + Pictilisib = compound: CCCS(=O)(=O)Nc1ccc(F)c(C(=O)c2c[nH]c3ncc(-c4ccc(Cl)cc4)cc23)c1F [Vemurafenib] + CS(=O)(=O)N1CCN(Cc2cc3nc(-c4cccc5[nH]ncc45)nc(N4CCOCC4)c3s2)CC1 [Pictilisib] (partner 1 µM)
In short: as §1

OSI-027 + Navitoclax = compound: COc1cccc2cc(-c3nc([C@H]4CC[C@H](C(=O)O)CC4)n4ncnc(N)c34)[nH]c12 [OSI-027] + CC1(C)CCC(c2ccc(Cl)cc2)=C(CN2CCN(c3ccc(C(=O)NS(=O)(=O)c4ccc(N[C@H](CCN5CCOCC5)CSc5ccccc5)c(S(=O)(=O)C(F)(F)F)c4)cc3)CC2)C1 [Navitoclax] (partner 0.5 µM)
In short: as §1

OSI-027 + Foretinib = compound: COc1cccc2cc(-c3nc([C@H]4CC[C@H](C(=O)O)CC4)n4ncnc(N)c34)[nH]c12 [OSI-027] + COc1cc2c(Oc3ccc(NC(=O)C4(C(=O)Nc5ccc(F)cc5)CC4)cc3F)ccnc2cc1OCCCN1CCOCC1 [Foretinib] (partner 0.25 µM)
In short: as §1

Cell Line | relative viability (Vemurafenib + Foretinib; first compound 0.03162 µM) | relative viability (Vemurafenib + Foretinib; first compound 0.1 µM) | relative viability (Vemurafenib + Foretinib; first compound 0.3162 µM) | relative viability (Vemurafenib + Foretinib; first compound 1 µM) | relative viability (Vemurafenib + Pictilisib; first compound 0.03162 µM) | relative viability (Vemurafenib + Pictilisib; first compound 0.1 µM) | relative viability (Vemurafenib + Pictilisib; first compound 0.3162 µM) | relative viability (Vemurafenib + Pictilisib; first compound 1 µM) | relative viability (OSI-027 + Navitoclax; first compound 0.01 µM) | relative viability (OSI-027 + Navitoclax; first compound 0.03162 µM) | relative viability (OSI-027 + Navitoclax; first compound 0.1 µM) | relative viability (OSI-027 + Navitoclax; first compound 0.3162 µM) | relative viability (OSI-027 + Navitoclax; first compound 1 µM) | relative viability (OSI-027 + Foretinib; first compound 0.03162 µM) | relative viability (OSI-027 + Foretinib; first compound 0.1 µM) | relative viability (OSI-027 + Foretinib; first compound 0.3162 µM) | relative viability (OSI-027 + Foretinib; first compound 1 µM) | relative viability (OSI-027 + Foretinib; first compound 0.01 µM)
201T | 0.984 | 1 | 1.06 | 1.1 | 0.651 | 0.67 | 0.702 | 0.677 | 1.25 | 1.24 | 1.2 | 1.22 | 1.13 | 1.09 | 1.07 | 0.944 | 0.459 | 
A549 | 0.945 | 0.872 | 0.986 | 0.919 | 0.532 | 0.43 | 0.607 | 0.453 | 1.16 | 1.24 | 1.01 | 0.971 | 0.319 | 1.04 | 1.01 | 0.84 | 0.465 | 1.14
A-427 | 1.01 | 0.951 | 1.06 | 1.18 | 0.751 | 0.754 | 0.564 | 0.738 | 0.974 | 0.873 | 0.837 | 0.603 | 0.696 | 1 | 0.89 | 0.707 | 0.423 | 0.952
ABC-1 | 1.05 | 1.16 | 1.19 | 1.05 | 0.751 | 0.536 | 0.658 | 0.753 |  |  |  |  |  | 0.996 | 0.904 | 0.652 | 0.567 | 1.13
BEN | 0.534 | 0.575 |  | 0.621 | 0.529 | 0.593 | 0.358 | 0.431 | 0.0799 | 0.0753 | 0.0684 | 0.0639 | 0.0589 | 0.617 | 0.371 | 0.3 | 0.258 | 0.475
CAL-12T | 1.15 | 0.828 | 1.33 | 1.09 | 0.407 |  |  | 0.406 | 1.36 | 1.18 | 1.3 | 1.08 | 0.5 | 1.22 | 1.14 | 1.13 | 0.488 | 1.16
COR-L23 | 0.864 | 0.92 | 0.854 | 0.957 | 0.684 | 0.615 | 0.598 | 0.544 | 0.988 | 0.782 | 0.938 | 0.923 | 0.36 | 0.844 | 0.993 | 1.06 | 0.772 | 1.01
COR-L 105 | 1.04 |  |  | 0.978 | 0.467 |  | 0.406 | 0.368 | 0.899 | 0.782 | 0.886 | 0.636 | 0.429 | 1.24 | 0.888 | 1.29 | 0.995 | 1.22
Calu-6 | 0.841 | 0.855 | 0.885 | 0.757 | 0.888 | 0.902 | 0.741 | 0.822 | 0.78 | 0.897 | 0.752 | 0.782 | 0.493 | 0.936 | 0.837 | 0.784 | 0.593 | 0.989
